Measured values from patent US20240300932A1, “N-PHENYLIMINE DERIVATIVE AND PREPARATION METHOD AND USE THEREOF” (Guizhou University, priority 2023, published 2024).

What was measured:
Assay in all cases: Post-emergence herbicidal activity test (stem and leaf spray, pot culture)
Type in all cases: in vivo
Conditions in all cases: 3 weeks after spraying
Portulaca oleracea = test system: Portulaca oleracea
Summary of the method: (§1)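 Activity is given as a 0–5 grade of fresh weight growth control, scored three weeks after a single stem-and-leaf spray. Weeds in farmland loam were treated at the 2- to 3-leaf stage at 10, 5 and 2.5 g/mu, with methyl oleate added as synergist.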

Setaria viridis = test system: Setaria viridis
Summary of the method: as §1

Abutilon theophrasti = test system: Abutilon theophrasti
Summary of the method: as §1

Echinochloa crusgalli = test system: Echinochloa crusgalli
Summary of the method: as §1

Amaranthus retroflexus = test system: Amaranthus retroflexus
Summary of the method: as §1

Trifoliumre pensL. = test system: Trifoliumre pensL.
Summary of the method: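 Rates of 10, 5 and 2.5 g/mu were applied in a single spray-tower treatment to 2–3-leaf plants, thinned to 10 per pot. Formulation: acetone solution, Tween 80, 1.5 L/ha methyl oleate synergist. Weed response assessed after 3 further greenhouse weeks; mean of three experiments.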

SMILES	Post-emergence herbicidal activity, P. oleracea (grade) (Portulaca oleracea; dosage 2.5 g/mu)	Post-emergence herbicidal activity, P. oleracea (grade) (Portulaca oleracea; dosage 5 g/mu)	Post-emergence herbicidal activity, P. oleracea (grade) (Portulaca oleracea; dosage 10 g/mu)	Post-emergence herbicidal activity, S. viridis (grade) (Setaria viridis; dosage 2.5 g/mu)	Post-emergence herbicidal activity, S. viridis (grade) (Setaria viridis; dosage 5 g/mu)	Post-emergence herbicidal activity, S. viridis (grade) (Setaria viridis; dosage 10 g/mu)	Post-emergence herbicidal activity, A. theophrasti (grade) (Abutilon theophrasti; dosage 2.5 g/mu)	Post-emergence herbicidal activity, A. theophrasti (grade) (Abutilon theophrasti; dosage 5 g/mu)	Post-emergence herbicidal activity, A. theophrasti (grade) (Abutilon theophrasti; dosage 10 g/mu)	Post-emergence herbicidal activity, E. crusgalli (grade) (Echinochloa crusgalli; dosage 2.5 g/mu)	Post-emergence herbicidal activity, E. crusgalli (grade) (Echinochloa crusgalli; dosage 5 g/mu)	Post-emergence herbicidal activity, E. crusgalli (grade) (Echinochloa crusgalli; dosage 10 g/mu)	Post-emergence herbicidal activity, A. retroflexus (grade) (Amaranthus retroflexus; dosage 2.5 g/mu)	Post-emergence herbicidal activity, A. retroflexus (grade) (Amaranthus retroflexus; dosage 5 g/mu)	Post-emergence herbicidal activity, A. retroflexus (grade) (Amaranthus retroflexus; dosage 10 g/mu)	Post-emergence herbicidal activity, Trifoliumre pensL. (grade) (Trifoliumre pensL.; dosage 2.5 g/mu)	Post-emergence herbicidal activity, Trifoliumre pensL. (grade) (Trifoliumre pensL.; dosage 5 g/mu)	Post-emergence herbicidal activity, Trifoliumre pensL. (grade) (Trifoliumre pensL.; dosage 10 g/mu)
CC(C)(C)c1ccc(-c2noc(COc3cc(N4C(=O)C5=C(CCCC5)C4=O)c(F)cc3Cl)n2)cc1 [Compound A26]	4 (Grade 4: the growth control rate is greater than or equal to 60% and less than 85%)	5 (Grade 5: the growth control rate is greater than or equal to 85%)	5 (Grade 5: the growth control rate is greater than or equal to 85%)	2 (Grade 2: the growth control rate is greater than or equal to 20% and less than 40%)	3 (Grade 3: the growth control rate is greater than or equal to 40% and less than 60%)	4 (Grade 4: the growth control rate is greater than or equal to 60% and less than 85%)	5 (Grade 5: the growth control rate is greater than or equal to 85%)	5 (Grade 5: the growth control rate is greater than or equal to 85%)	5 (Grade 5: the growth control rate is greater than or equal to 85%)	1 (Grade 1: the growth control rate is greater than or equal to 5% and less than 20%)	2 (Grade 2: the growth control rate is greater than or equal to 20% and less than 40%)	3 (Grade 3: the growth control rate is greater than or equal to 40% and less than 60%)	5 (Grade 5: the growth control rate is greater than or equal to 85%)	5 (Grade 5: the growth control rate is greater than or equal to 85%)	5 (Grade 5: the growth control rate is greater than or equal to 85%)	4 (Grade 4: the growth control rate is greater than or equal to 60% and less than 85%)	5 (Grade 5: the growth control rate is greater than or equal to 85%)	5 (Grade 5: the growth control rate is greater than or equal to 85%)
O=C1C2=C(CCCC2)C(=O)N1c1cc(OCc2nc(-c3ccc(I)cc3)no2)c(Cl)cc1F [Compound A27]	5 (Grade 5: the growth control rate is greater than or equal to 85%)	5 (Grade 5: the growth control rate is greater than or equal to 85%)	5 (Grade 5: the growth control rate is greater than or equal to 85%)	2 (Grade 2: the growth control rate is greater than or equal to 20% and less than 40%)	3 (Grade 3: the growth control rate is greater than or equal to 40% and less than 60%)	4 (Grade 4: the growth control rate is greater than or equal to 60% and less than 85%)	5 (Grade 5: the growth control rate is greater than or equal to 85%)	5 (Grade 5: the growth control rate is greater than or equal to 85%)	5 (Grade 5: the growth control rate is greater than or equal to 85%)	1 (Grade 1: the growth control rate is greater than or equal to 5% and less than 20%)	2 (Grade 2: the growth control rate is greater than or equal to 20% and less than 40%)	3 (Grade 3: the growth control rate is greater than or equal to 40% and less than 60%)	5 (Grade 5: the growth control rate is greater than or equal to 85%)	5 (Grade 5: the growth control rate is greater than or equal to 85%)	5 (Grade 5: the growth control rate is greater than or equal to 85%)	5 (Grade 5: the growth control rate is greater than or equal to 85%)	5 (Grade 5: the growth control rate is greater than or equal to 85%)	5 (Grade 5: the growth control rate is greater than or equal to 85%)
O=C1C2=C(CCCC2)C(=O)N1c1cc(OCc2nnc(-c3ccccc3F)o2)c(Cl)cc1F [Compound B1]	5 (Grade 5: the growth control rate is greater than or equal to 85%)	5 (Grade 5: the growth control rate is greater than or equal to 85%)	5 (Grade 5: the growth control rate is greater than or equal to 85%)	2 (Grade 2: the growth control rate is greater than or equal to 20% and less than 40%)	3 (Grade 3: the growth control rate is greater than or equal to 40% and less than 60%)	4 (Grade 4: the growth control rate is greater than or equal to 60% and less than 85%)	5 (Grade 5: the growth control rate is greater than or equal to 85%)	5 (Grade 5: the growth control rate is greater than or equal to 85%)	5 (Grade 5: the growth control rate is greater than or equal to 85%)	1 (Grade 1: the growth control rate is greater than or equal to 5% and less than 20%)	2 (Grade 2: the growth control rate is greater than or equal to 20% and less than 40%)	3 (Grade 3: the growth control rate is greater than or equal to 40% and less than 60%)	5 (Grade 5: the growth control rate is greater than or equal to 85%)	5 (Grade 5: the growth control rate is greater than or equal to 85%)	5 (Grade 5: the growth control rate is greater than or equal to 85%)	5 (Grade 5: the growth control rate is greater than or equal to 85%)	5 (Grade 5: the growth control rate is greater than or equal to 85%)	5 (Grade 5: the growth control rate is greater than or equal to 85%)
Cc1cccc(-c2nnc(COc3cc(N4C(=O)C5=C(CCCC5)C4=O)c(F)cc3Cl)o2)c1 [Compound B3, 2-(4-chloro-2-fluoro-5-(5-(3-tolyl)-1,3,4-oxadiazole-2-methoxy)phenyl)-4,5,6,7-tetrahydro-1H-isoindole-1,3(2H)-dione]	5 (Grade 5: the growth control rate is greater than or equal to 85%)	5 (Grade 5: the growth control rate is greater than or equal to 85%)	5 (Grade 5: the growth control rate is greater than or equal to 85%)	2 (Grade 2: the growth control rate is greater than or equal to 20% and less than 40%)	3 (Grade 3: the growth control rate is greater than or equal to 40% and less than 60%)	4 (Grade 4: the growth control rate is greater than or equal to 60% and less than 85%)	5 (Grade 5: the growth control rate is greater than or equal to 85%)	5 (Grade 5: the growth control rate is greater than or equal to 85%)	5 (Grade 5: the growth control rate is greater than or equal to 85%)	1 (Grade 1: the growth control rate is greater than or equal to 5% and less than 20%)	2 (Grade 2: the growth control rate is greater than or equal to 20% and less than 40%)	3 (Grade 3: the growth control rate is greater than or equal to 40% and less than 60%)	5 (Grade 5: the growth control rate is greater than or equal to 85%)	5 (Grade 5: the growth control rate is greater than or equal to 85%)	5 (Grade 5: the growth control rate is greater than or equal to 85%)	5 (Grade 5: the growth control rate is greater than or equal to 85%)	5 (Grade 5: the growth control rate is greater than or equal to 85%)	5 (Grade 5: the growth control rate is greater than or equal to 85%)
